The results in this text go back to US9561201B2, “Therapeutic compounds” (Fibrotech Therapeutics Pty Ltd, priority 2006, dated 2017).

Experiment [1] relates to mesangial cell line (1097). As to the kind of experiment: TGF-β induced 3H-proline incorporation in cultured rat mesangial cells (Example 2). Type of experiment: cell-based, Sprague-Dawley rats. Conditions: renal mesangial cells, from 30 to 100 μM. The protocol:
The anti-fibrotic effects of 3-methoxy-4-propargyloxybenzaldehyde (FT011) in a renal cell line were tested by measuring proline incorporation after transforming growth factor-β stimulation.
A well-characterized cloned mesangial cell line (1097) isolated from Sprague-Dawley rats was used between passages 30 and 40. Cells were cultured in Dulbecco's Modified Eagle's (DME) medium (Invitrogen, Grand Island, N.Y.) with heat-inactivated fetal bovine serum (FBS), 100 u/mL penicillin and 100 ug/mL streptomycin in a humidified 5% CO2 atmosphere at 37° C.
To compare the effects of tranilast and FT011 on collagen production in vitro, incorporation of tritiated proline was used. Mesangial cells were plated at low density into 24-well culture plates in DME/5% FBS and allowed to adhere overnight. The subconfluent cells were starved overnight in DME/0.5% FBS and […] L-ascorbic acid (Sigma-Aldrich). Tranilast or FT011 was then added to the wells, followed 4 hours later by L-[2,3,4,5-^3H]-proline, 0.5 μCi/well (Amersham) and TGF-β1, 5 ng/ml (R & D systems). Mesangial cells were harvested 48 hours post-stimulation, washed three times with ice cold PBS, and incubated with 10% trichloroacetic acid (TCA) for 30 minutes on ice, followed by a wash in ice cold 10% TCA. Cells were then solubilised in […] 1M NaOH. […]

The subject of experiment [2] is neonatal SD rat cardiac fibroblasts. As to the kind of experiment: TGF-β-stimulated fibrosis (proline incorporation) in neonatal cardiac fibroblasts (Example 4). Type of experiment: cell-based. The protocol:
Matrix synthesis may be stimulated by both angiotensin II or transforming growth factor beta (TGF-β).
Neonatal SD rat cardiac fibroblasts (NCFs) were isolated from one-day-old pups with enzymatic digestion. NCFs were purified by percoll gradient and seeded with DMEM in the present of 1% antibiotic/antimycotic (AB/AM) and 10% fatal bovine serum (FBS). NCFs were then subcultured when they are about 80% confluence. The second passage of NCFs was used for the assays.
NCFs were seeded at 25,000 cells/well in 12-well plates and incubated at 37° C. and 5% CO2 overnight in DMEM with 1% AB/AM and 10% FBS. Cells were then washed with DMEM and then the media replaced with DMEM/F12 with 1% AB/AM, 0.5% Bovine Serum Albumin (BSA) and Vitamin C, before being incubated at 37° C. and 5% CO2 for 24 hours.
The effect of FT011 on TGF-β- or angiotensin II-stimulated fibrosis in the neonatal SD rat cardiac fibroblasts was investigated.

With `C#CCOc1ccc(/C=C/C(=O)Nc2ccccc2C(=O)O)cc1OC` [Analogue 11], the “proline incorporation after TGF-β stimulation” value in experiment [1] was “significantly reduce”. The “TGF-β-stimulated fibrosis (proline incorporation)” value in experiment [2] is “inhibited”.
